The results in this text go back to paper PMC8147254, “Efflux at the Blood-Brain Barrier Reduces the Cerebral Exposure to Ochratoxin A, Ochratoxin α, Citrinin and Dihydrocitrinone” (Toxins, 2021).

The nature of series [1]: in vitro. The settings on record: pig.
The next series deals with PBCEC monolayer. The series is described as follows: in vitro. Particulars: for amount in the apical compartment after 48 h, of initially applied amount / amount transferred to the basolateral compartment after 48 h, of initially applied amount: 1 µM (760 pmol) apical, n = 9. Here is the method: (§1) For transfer studies from the apical (blood) side to the basolateral compartment (brain side), 1 µM of mycotoxins were applied on the apical side of the Transwell® filter compartment. Over 48 h, OTA, OTα, CIT, and DHCIT were quantified at eight points in time in both compartments by HPLC-MS/MS in order to investigate the transfer and potential metabolism of the applied compounds.
(§2) Both devices were operated with Analyst 1.6.2 software (SCIEX Germany GmbH, Darmstadt, Germany). Chromatographic separation of OTA, OTα, CIT, and DHCIT was performed on a 100 mm × 2.1 mm Halo RP-Amide 2.7 µm column (Advanced Materials Technology, Wilmington, NC, USA) equipped with an Ultra filter (KrudKatcher, Phenomenex, Aschaffenburg, Germany) at 40 °C using a gradient of ACN+1% formic acid (FA) (Solvent A) and H2O+1% FA (solvent B) at a flow rate of 250 µL/min. […] Afterwards, the column was re-equilibrated for 4 min. An injection volume of 5 µL was used. A diverter valve was used to exclude the first 5 min of the HPLC run from the mass spectrometer and reduce matrix contamination. The Ion Drive Turbo V ion source was heated to 400 °C. Further conditions were curtain gas (CUR) 35 psi N2, nebuliser gas (GS1) 45 psi N2, heater gas (GS2) 55 psi N2, and ion spray voltage 4500 V in positive and −4500 V in negative ionization mode; each MRM transition was monitored for 5 ms. Detailed mass spectrometer settings are given in the Supplementary Materials of this article.
(§3) The permeability coefficients p were calculated according to (1) as described in detail in [15]:(1) p[cm/s]=cbas[%]/[…]·Vap[cm³]/A[cm^2]·t[s] where cbas is the mycotoxin concentration in the basolateral compartment at a certain time t [s]. The initial concentration in the apical compartment is c0 h,ap and Vap is the volume of the compartment at the beginning of the experiment. A is the area of the filter insert membrane. The resulting permeability of the mycotoxin across the cell monolayer pc was calculated as shown in (2):(2) 1/pc [cm/s]=1/pc+f [cm/s][…]1/pf[cm/s] where pc+f is the permeability coefficient of the transfer study and pf the permeability coefficient of the cell-free polycarbonate filter membrane. […]
(§4) serum) and centrifugation at 220 × g at 20 °C for 10 min the supernatant was removed. Fresh complete medium was added and the cell pellet was gently resuspended twice to a final concentration of 150,000 cells/mL. 100 μ L of this suspension were seeded on rat‐tail collagen coated 96‐well plates (rat‐ tail collagen was isolated as described previously) resulting in 15,000 cells per well. PBCEC were incubated at 37 °C, 5% CO2 in a saturated humidified atmosphere. After 48 h the medium was replaced with serum‐free medium (DMEM/Ham’s F‐12 with 100 U/mL penicillin, 100 μg/mL […]
(§5) Aldrich, Steinheim, Germany)). […]
(§6) The thawing and seeding procedure was performed according to the protocol already described for the viability test as previously published. Instead of using 96‐well plates, 500 μL PBCEC suspension (500,000 cells/mL) were seeded in the upper (apical) compartment of a 12‐well Transwell®

Series [2] can be described thus: in vitro. The settings on record: pig. Here is the method: as §1, §2, §3, §4, §5, §6
This is another data set of the same source.

Series [3] concerns PBCEC. Particulars: 48 h.
The test system of series [4] is PBCEC. The series is described as follows: Electrical capacitance cCL of the cell monolayer by impedance spectroscopy. It counts as cell-based, porcine. Particulars: 1 µM apical, referred to t = 0 h, n = 9 (negative control 99 ± 2%). As for the experimental part: In order to study the barrier integrity PBCEC were incubated with 1 µM OTA, OTα, CIT and DHCIT in the apical compartment (blood side) of Transwell® filter inserts for 48 h. The TEER values as well as the electrical capacitance (cCL) were monitored by cellular impedance spectroscopy (Figure 4A,B). As a negative control the permeability of […] was measured after 48 h. Sucrose is not transported by any cellular transport protein and represents a marker for an intact BBB.
Besides the TEER values, the electrical capacitance cCL of the cell monolayer was also monitored for 48 h (Figure 4B). As cellular bilayer membranes behave like an electrical capacitor, they influence the cellular impedance. Changes in cCL are markers for the integrity of the cells. Weak cytotoxic effects lead to a reduction of cCL, whereas strong cytotoxic effects result in an exponential increase in cCL to more than 150% due to the usually observed detachment of the cells from the surface.
For barrier integrity, TEER values were monitored using a cellZscope® cellular impedance spectrometer (nanoAnalytics, Münster, Germany). […]. The detailed protocols can be found in the Supplementary Materials.
After 48 h the medium was […]
The Transwell® filters were briefly […]
equipped with a 24 12‐well Transwell® filter setup. Each well was previously filled with 1650 μL serum‐free medium. Transendothelial electrical resistances (TEER) were analyzed using the cellZscope® device. Only Transwell® filters with TEER values of more than 600 Ω∙cm² and electrical […]
76 μ L of the medium in the apical […]
concentration of the mycotoxins was 1 μM at the beginning of the mycotoxin incubation. The final solvent concentration was 0.1% ACN. […]
and 48 h after toxin application. […]

The subject of series [5] is PBCEC. It counts as cell-based, porcine. The settings on record: pig. Here is the method: In order to study the barrier integrity PBCEC were incubated with 1 µM OTA, OTα, CIT and DHCIT in the apical compartment (blood side) of Transwell® filter inserts for 48 h. The TEER values as well as the electrical capacitance (cCL) were monitored by cellular impedance spectroscopy (Figure 4A,B). As a negative control the permeability of […] was measured after 48 h. Sucrose is not transported by any cellular transport protein and represents a marker for an intact BBB. […]
6.1. Cellular impedance spectroscopy […]
6.2. […] permeability
As additional method to control the barrier tightness the permeability of radiolabeled […]
across the Transwell® inserts was measured. Since 14C sucrose is not transported or taken up by endothelial cells, the permeability of 14C sucrose is an appropriate parameter for barrier integrity.
After 48 h exposure to the mycotoxins 1 μ Ci (37 kBq) […] (Amersham, Buckinghamshire, UK) was applied to the apical compartment. Samples from the basolateral compartment were collected after 10, 20, 30, 40, 60 and 80 min, diluted in scintillation fluid and analyzed with a scintillation counter as previously described.

[6] abbreviates: cellular viability (dehydrogenase activity) compared to the negative control, 1 µM, 48 h, CCK-8, n = 18.
Where [7] appears, read: cellular viability (dehydrogenase activity) compared to the negative control, 10 µM, 48 h, CCK-8, n = 18.

As usually defined, the viability is a read-out of living cells in per cent, often relative to untreated cells. As usually defined, the Papp A→B is how fast a substance crosses the layer from the apical side.

Read-outs that look alike come from different tables or passages of the source.

Regarding `CC1=C2C(=CO[C@H](C)[C@H]2C)C(O)=C(C(=O)O)C1=O` [CIT, Citrinin], in “in vitro [1]”, the viability at 1 µM turned out to be 106 ± 13% and the viability at 10 µM was 134 ± 13%. In addition, in the series with PBCEC monolayer, the “amount in the apical compartment after 48 h, of initially applied amount” value (“amount in the apical compartment” for short) is on record as 67 ± 3% and the “amount transferred to the basolateral compartment after 48 h, of initially applied amount” value (“amount transferred” below) is given as 40 ± 4%. In the series with PBCEC monolayer (pig), the “permeability relative to the negative control 14C sucrose (factor)” value was “ca. 4”. This compound yielded a Papp A→B in “in vitro [2]” of 1.79 ± 0.4 ×10⁻⁶ cm/s. Besides, in the series with PBCEC [3] (10 µM), the cellular morphology entry is recorded as “unremarkable”. In the series on PBCEC [4], the “electrical capacitance cCL after 48 h” value was 97 ± 4%. In the series on PBCEC [5], the “permeability pc (14C sucrose) after mycotoxin incubation” value (“permeability pc (14C sucrose)” below) is 0.50 ± 0.33 10^−6 cm/s.
For the compound `Cc1c(O)c(C(=O)O)c(O)c2c1[C@H](C)[C@@H](C)OC2=O` [DHCIT, dihydrocitrinone], in “in vitro [1]”, the viability at 1 µM was 96 ± 11% and the viability at 10 µM worked out at 87 ± 9%. Also, in the series with PBCEC monolayer, the “amount in the apical compartment” value is given as 87 ± 13% and the “amount transferred” value came out at 14 ± 3%. The same compound returned an apparent permeability from apical to basolateral (Papp A→B) in the series “in vitro [2]” of 0.51 ± 0.14 ×10⁻⁶ cm/s. The cellular morphology result in the series on PBCEC [3] (10 µM) is given as “unremarkable”. Further, the “electrical capacitance cCL after 48 h” value in the series with PBCEC [4] is 99 ± 4%. For the same compound, in the series on PBCEC [5], the “permeability pc (14C sucrose)” value was 0.38 ± 0.17 10^−6 cm/s.
As to `C[C@@H]1Cc2c(Cl)cc(C(=O)N[C@@H](Cc3ccccc3)C(=O)O)c(O)c2C(=O)O1` [OTA, Ochratoxin A], in the series “in vitro [1]” (setting [6]), the viability at 1 µM is 92 ± 23%. Besides, in the series “in vitro [1]” (setting [7]), the viability at 10 µM came out at 3 ± 4%. In the series on PBCEC monolayer, the “amount in the apical compartment” value is reported as 96 ± 7%. The “amount transferred” value with PBCEC monolayer was found to be 14 ± 3%. This compound also showed a Papp A→B in the series “in vitro [2]” of 0.38 ± 0.08 ×10⁻⁶ cm/s. Moreover, the cellular morphology entry in the series with PBCEC [3] (100 nM and lower concentrations) is “no morphological changes”; with PBCEC [3] (10 µM), “very similar morphological changes of the PBCEC as they were observed for 10 µM T-2 toxin”. Further, in the series with PBCEC [4], the “electrical capacitance cCL after 48 h” value is 96 ± 4%. Further, in the series on PBCEC [5], the “permeability pc (14C sucrose)” value is reported as 0.81 ± 0.17 10^−6 cm/s.
On to `C[C@@H]1Cc2c(Cl)cc(C(=O)O)c(O)c2C(=O)O1` [OTα, ochratoxin α], for which the viability at 1 µM in the series “in vitro [1]” (setting [6]) was 119 ± 18%. Also, the viability at 10 µM in the series “in vitro [1]” (setting [7]) came to 100 ± 14%. In the series with PBCEC monolayer, the “amount in the apical compartment” value was 86 ± 6% and the “amount transferred” value was determined as 19 ± 4%. Further, the Papp A→B in “in vitro [2]” was 0.68 ± 0.15 ×10⁻⁶ cm/s. The cellular morphology result in the series on PBCEC [3] (10 µM) is given as “unremarkable”. The “electrical capacitance cCL after 48 h” value in the series on PBCEC [4] is 98 ± 2%. The “permeability pc (14C sucrose)” value in the series with PBCEC [5] is recorded as 0.56 ± 0.24 10^−6 cm/s.
